Reference: US20150038513A1, “ASSOCIATION BETWEEN N-HYDROXY-4-BENZAMIDE AND FOLFOX” (LES LABORATOIRES SERVIER, priority 2011, published 2015)

Columns and labels:
xenograft models = details: in vivo, Buggy et al. 2006; cited from earlier work
[1] = system: histone deacetylase (HDAC); details: described in WO2004/092115; cited from earlier work
[2] = system: colorectal cancer, a pancreatic cancer or a gastric cancer; experiment: Clinical study of the association with FOLFOX; format: in vivo; details: patients previously treated by FOLFOX
Procedure: A clinical study for testing the association of N-hydroxy-4-{2-[3-(N,N-dimethylamino-methyl)benzofuran-2-ylcarbonylamino]ethoxy}benzamide with FOLFOX is carried out on a maximum of 60 patients. Patients included in the study suffer from a colorectal cancer, a pancreatic cancer or a gastric cancer, and they have been treated by a treatment based on FOLFOX (i.e., alone or in association with other treatments) prior to their inclusion. More precisely, the study consists of 14-day cycles, each of the cycles being performed as follows: N-hydroxy-4-{2-[3-(N,N-dimethylaminomethyl)benzofuran-2-ylcarbonylamino]ethoxy}benzamide (in the form of a hydrochloride salt) is administered for 4 consecutive days whilst oxaliplatin and folinic acid are administered simultaneously on the third day, at the end of infusion of which 5-fluorouracil is administered continuously until the fifth day. […] At the end of a treatment cycle, the toxicity of the regimen associating N-hydroxy-4-{2-[3-(N,N-dimethylaminomethyl)benzofuran-2-ylcarbonylamino]ethoxy}benzamide and FOLFOX is assessed. […] Every four cycles, the efficacy of the treatment is assessed by evaluating the tumour response (CT scan, MRI, etc.). The acceptability profile is also evaluated (especially haematologic and cardiac toxicity).

cultured tumour cells = cultured tumour cells in vitro; Buggy et al. 2006; cited from earlier work

CN(C)Cc1c(C(=O)NCCOc2ccc(C(=O)NO)cc2)oc2ccccc12 [N-hydroxy-4-{2-[3-(N,N-dimethylaminomethyl)benzofuran-2-ylcarbonylamino]ethoxy}benzamide]
tumour growth (xenograft models): inhibits tumour growth | HDAC inhibition [1]: powerful histone deacetylase (HDAC) inhibitor | efficacy of the treatment (tumour response) of the association with FOLFOX ([2]; hydrochloride salt p.o., 160-360 mg daily, 4 consecutive days, in association with FOLFOX, 14-day cycles): promising | reversal of resistance to FOLFOX [2]: reverse the resistance to FOLFOX | apoptosis (cultured tumour cells): induces apoptosis | cell growth (cultured tumour cells): inhibition of cell growth
